{
  "source": "patent US8758746B2",
  "about": "“Fertilization modulation compounds and process for implementing them” (Universite Joseph Fourier, priority 2009, dated 2014)",
  "key": {"[1]": {"tested_on": "Sperm cells", "experiment": "Electron microscopy of sPLA2-induced acrosome reaction", "assay_type": "cell-based, mouse", "conditions": "uncapacitated sperm, incubated 10 min (200 nM sPLA2)", "method": "Sperm cells were fixed with 2.5% glutaraldehyde in 0.1 M cacodylate buffer pH 7.4 during 2 hours at room temperature. Cells were then washed with buffer and post fixed with 1% Osmium tetroxyde in the same buffer during 1 hour at 4° C. After extensive washing with water cells were then stained with 0.5% uranile acetate pH 4 overnight at 4° C. Cells were then dehydrated through graded alcohol (30%-60%-90%-100%-100%-100%) and infiltrate with a mix of 1/1 epon/alcohol 100% during 1 hour before several bath of fresh epon (Flukka) during 3 hours. Finally, cells were centrifugated and immersed in fresh Epon and polymerised during 3 days at 60° C. Ultrathin sections of the cell pellet were cut with an ultramicrotome (Leica). Sections were post-stained with 4% uranile acetate and 1% lead citrate before being observed in an electron microscope at 80 kV (JEOL 1200EX).\nIt was important to check with electron microscopy (EM) that sPLA2 induced a morphologically normal acrosome reaction. The morphological criteria by which an acrosome reaction is evaluated to be normal are relatively limited: first, the outer acrosomal membrane should present vesiculation, second, the plasma membrane should fuse with the outer acrosomal membrane and present a characteristic double hair pin shape at the base of the acrosome (Green, D. P. (1978) The induction of the acrosome reaction in guinea-pig sperm by the divalent metal cation ionophore A23187. J. Cell Sci., 32:137-51.:137-151.)\nFor these experiments, uncapacitated sperm was used in order to reduce the contribution of spontaneous AR and 200 nM sPLA2 to get maximum sPLA2-induced AR. Sperm were incubated 10 min with mGX sPLA2 or the calcium ionophore A23187 and then fixed. In the presence of A23187, all acrosome-reacted sperm presented complete AR, with the 3 morphological criteria, as described above."}, "[2]": {"tested_on": "Sperm cells", "experiment": "Detection of mGX sPLA2 released from sperm cells (TR-FIA)", "assay_type": "cell-based, mouse", "conditions": "90 min capacitation in 2% BSA, A23187 (5 μM) during the last 30 min", "method": "Sperm cells from 4 caudae epididymes of mGX sPLA2 mice were allowed to swim for 15 min at 37° C. in 2.5 ml of M2 medium. Aliquots of 500 μl of sperm cells were then diluted in 4.5 ml of M16 medium containing 2% fatty acid free BSA and further incubated at 37° C. for 0, 45 and 90 min. In some assays, A23187 Ca2+ ionophore (5 μM) was added after the first 60 min of incubation and sperm cells were incubated for an additional 30 min. After incubation, sperm cells were spun down for 8 min at 1,200 rpm, and supernatants and cell pellets were flash frozen in liquid nitrogen and stored at −80° C. mGX sPLA2 protein expression and enzymatic activity were analyzed on crude cell supernatants and cell pellets after resuspension in 500 μl of M16 medium containing a cocktail of protease inhibitors (Complete inhibitor set, Roche Biochemicals) and lysis with a Branson 350 Sonifier Cell disrupter. […] Briefly, 5 to 50 μl of cell lysates or supernatants were incubated for 60 min in 300 μl of sPLA2 activity buffer (0.1 M Tris pH 8.0, 10 mM CaCl2, and 0.1% bovine serum albumin containing 100,000 DPM of [3H]oleate-radiolabeled E. coli membranes. Reactions were stopped by addition of 300 μl of stop buffer (0.1 M EDTA pH 8.0 and 0.1% fatty acid free bovine serum Albumin); mixtures were centrifuged at 10,000 g for 5 min, and the supernatants containing released [^3H]oleate were counted."}},
  "note": "Entries after “also recorded” stand apart in the source; their conditions may differ.",
  "data": [
    {"smiles": "CNc1ccc2oc(C[C@H]3O[C@@]4(CC[C@H]3C)O[C@H]([C@H](C)C(=O)c3ccc[nH]3)[C@H](C)C[C@H]4C)nc2c1C(=O)O", "note": "[A23187]", "values": [
      {"measurement": "morphology of induced acrosome reaction (electron microscopy)", "setting": "[1]", "value": "complete AR"},
      {"measurement": "mGX level in the capacitation medium (TRFIA)", "setting": "[2]", "value": "two fold increase; also recorded: doubled"}
    ]}
  ]
}
